Test results reported in ChEMBL document CHEMBL3507680, “University of Dundee, Gates Library screen for HepG2 cell viability”.

Test: Human HepG2 cell viability assay in 384 well format
Type: toxicity, cell-based
Design: dose 125 nL, time 70.5 hour; concentration not given beside the values
Conditions: HepG2 cells, read-out: Inhibition

| SMILES | cytotoxicity at 70.5 h [%] |
| --- | --- |
| Cc1ccc(C(=O)N2CCCC(N)CC2)cc1N1CCNC1=O (centres undefined) | -2.27 |
| CCc1noc(C2CCCCN2C(=O)c2sccc2C)n1 (centres undefined) | 12.2 |
| CC(C)(C)n1cc(C#N)cc1NC(=O)CCNC(=O)c1ccco1 | 11.3 |
| COCCNC(=O)c1cn(C(C)(C)C)c2ncccc12 | -5.71 |
| COc1ccc(C(CO)NC(=O)Nc2cccc(F)c2)cc1 (centres undefined) | -4.24 |
| COCC1CN(Cc2ccoc2)Cc2cn(C)nc21 (centres undefined) | -7.39 |
| C[C@@H]1CN(C(=O)c2cccs2)C[C@]12CCN(CCN(C)C)C2=O | 21.2 |
| CCCc1nc(C)cc(NCCc2nnc(N)s2)n1 | -12.9 |
| COc1cccc2c1OCC(Cc1cc(C(=O)N3CCCC3)ccn1)C2 (centres undefined) | -16.5 |
| COc1ccc(C2SCC(=O)N2c2ncc(C)s2)cc1 (centres undefined) | -1.35 |
| Cc1ccccc1CC(C)(C)NC(=O)COc1cccc(C(N)=O)c1 | -0.108 |
| Cc1ccc(NC(=O)N2CCC(CO)(Nc3ccccc3)CC2)cc1 | 17.1 |
| COCCN(C/C=C/c1ccccc1)Cc1ccccn1 | 6.25 |
| Oc1nc(N2CCOCC2)nc2c1CCN(Cc1cccnc1)CC2 | -1.7 |
| COc1cccc(C)c1C(=O)N1CCc2ncnc(NCCO)c2CC1 | -7.07 |
| CCC(=O)NCCCn1c(-c2cccnc2C)cc2cccnc21 | -1.81 |
| CCn1c(=O)nc(N)c2c(-c3ccc(OC)cc3)csc21 | -10.3 |
| CC(=O)N1CCC(Cc2cnc(Nc3cc(C)on3)cn2)CC1 | -4.74 |
| CCOc1ccc(Cl)cc1CCNC(=O)Cn1ccccc1=O | -3.35 |
| COc1cccc(OCC(=O)N2CCC3(CC2)[C@H](O)C[C@@H]3OC)c1 | -5.93 |
| Cc1nn(C)c(C)c1-c1cnc(CC2CCNCC2)cn1 | -4.79 |

| SMILES | cytotoxicity at 70.5 h [%] |
| --- | --- |
| COc1c(CNCC(O)c2cccc(F)c2)c(C)nn1C (centres undefined) | -9.63 |
| COc1ccc(NC(C)c2nnnn2-c2ccccc2)cc1F (centres undefined) | -95.4 |
| c1ccc(OCCCNCc2cccs2)nc1 | 10.1 |
| CCN(C)S(=O)(=O)NCC(O)c1cc2ccccc2s1 (centres undefined) | -0.185 |
| O=C(NCCNc1cccnc1)C(c1cccnc1)N1CCCC1 (centres undefined) | -9.35 |
| COC(=O)C1CCN(C(=O)c2cc(Br)ccc2-n2cnnn2)CC1 | -1.5 |
| O=C(CCN1C[C@@H]2CC[C@H]1C2)N1CCN(c2cccc(Cl)c2)C(=O)C1 | -0.743 |
| N#Cc1c(C2CC2)cc(-c2ccc(F)c(F)c2)nc1N | -3.46 |
| COCCc1noc(CN2CCCc3cccc(OC)c32)n1 | -4.64 |
| CCOc1cncc(N2CCN(c3ccccc3F)CC2)n1 | 6.24 |
| COc1cccc(COc2nc(C(C)C)no2)c1 | 15.2 |
| COc1ccc(NC(=O)N2CCCCCC2c2ccncc2)cn1 (centres undefined) | -6.87 |
| Cc1csc(CNC(=O)NCC(O)c2cccc(Cl)c2)n1 (centres undefined) | -11 |
| OC1CCCN(Cc2c(-c3ccco3)[nH]c3ncccc23)C1 (centres undefined) | -4.41 |
| CC(C)Oc1ncnc2c1CCN(Cc1cccs1)CC2 | -6.72 |
| Cc1cccc(CN2CC[C@@H]3[C@@H]2CCN3C(=O)c2ccoc2C)n1 | 0.304 |
| O=C(CN1CCc2cncnc2C1)NC1CCCCNC1=O (centres undefined) | 0.54 |
| CC(Cn1ccnc1)NCc1ccc2nonc2c1 (centres undefined) | -2.31 |
| CCN(CC)C(=O)CSc1nc2c(cnn2CCO)c(=O)[nH]1 | 17.2 |
| CCN(Cc1ccc2c(c1)OCCO2)C(=O)Cn1cccnc1=O | -5.36 |
| O=C(NCC(c1cccs1)N1CCOCC1)c1ccc(F)cc1Cl (centres undefined) | -5.9 |

| SMILES | cytotoxicity at 70.5 h [%] |
| --- | --- |
| CC(C(=O)NCCOc1ccccc1)n1cncn1 (centres undefined) | -12.5 |
| COc1cccc(CN2CCN(c3ccc4nncn4n3)C(C)C2)c1 (centres undefined) | 9.6 |
| c1ccc(CN2CCN3C[C@H](Oc4cccnc4)C[C@H]3C2)nc1 | -3.66 |
| Cn1nc(C(=O)N2CCCCCC2)cc1NC(=O)c1ccccc1 | -9.93 |
| Cc1nc(CNC(=O)NC2CCN(c3ncccc3Cl)C2)oc1C (centres undefined) | 14.8 |
| c1nc(COCC2CC2)c2n1CCCN(CC1CC1)C2 | -18.3 |
| CN(C)S(=O)(=O)NC(=O)CC(c1ccccc1)C(F)(F)F (centres undefined) | -2.07 |
| Cc1nn(CC(=O)N2CCCN(c3cccnn3)CC2)c(C)c1Cl | 0.771 |
| Cc1ccc(N2CCCC(NC(=O)CCc3ccccn3)C2=O)cc1 (centres undefined) | 0.525 |
| Cc1cc(NC(=O)CNCc2csc(-c3ncccn3)n2)ccc1Cl | -14.6 |
| Cc1cc(C(=O)CN2CCN(c3ncccn3)CC2)c(C)n1C(C)C | 12.3 |
| O=C(NS(=O)(=O)c1ccccc1C(F)(F)F)c1cccc2c1OCCO2 | -75.1 |
| CO[C@@H]1CCN(Cc2c(C)noc2C)[C@@H]2CN(Cc3ccco3)C[C@@H]21 | -2.94 |
| c1csc(-c2noc(CC3CCCO3)n2)c1 (centres undefined) | 6.86 |
| COc1ccccc1OC1CN(C(=O)c2c(C)nc3ccc(C)cn23)C1 | -1.56 |
| c1ccc(OCCCn2ccnc2-c2cn(C3CCNCC3)nn2)cc1 | -4.27 |
| c1ccc(N2CCC3(COCCN(c4ncccn4)C3)C2)nc1 (centres undefined) | -10 |
| Cc1cc(C2CCCN2Cc2ccc(C(=O)Nc3nccs3)cc2)on1 (centres undefined) | -2.76 |
| CC(=O)N1CCC(c2cncc(N3CCOCC3)n2)CC1 | -8.68 |
| CCOCC1CCN(C(=O)Nc2ccc3c(c2)CCCO3)C1 (centres undefined) | 17.3 |
| COc1ccc(C2=NOC(C#N)C2)cc1 (centres undefined) | 8.47 |

| SMILES | cytotoxicity at 70.5 h [%] |
| --- | --- |
| CCCc1nnc2sc(CC3CN(Cc4ccccc4)CCO3)nn12 (centres undefined) | -8.68 |
| COc1ccc(C)cc1NC(=O)CNc1ccn(CC(N)=O)n1 | -9.21 |
| CCCS(=O)(=O)N1CCOCC2(CCN(c3ccccn3)C2)C1 (centres undefined) | -11.6 |
| COCc1noc(C2(c3ccc(OC)cc3)CCOCC2)n1 | -9.29 |
| Cc1nc[nH]c1CN1CCn2nc(CN3CC[C@H](F)C3)cc2C1 | -8.01 |
| CCCS(=O)(=O)N1CCC2(CC1)CC(=O)N(Cc1cc(F)cc(F)c1)C2 | -7.19 |
| Cc1ccsc1CN(CCN(C)C)Cc1ccccn1 | -4.97 |
| COCc1cn(C2CCN(C(=O)c3ccc(F)c(C)c3)CC2)nn1 | -6.36 |
| CC(NC(=O)NCCCn1cncn1)c1ccncc1 (centres undefined) | 2.26 |
| COCc1cnc2n1CCN(C(=O)c1oc3ccccc3c1C)C2C (centres undefined) | 18.3 |
| COc1cccc(-n2nc(C(C)=O)c(C(C)=O)c2C)c1 | -15.4 |
| CC1CN(C)c2ccccc2CN1C(=O)c1cnsn1 (centres undefined) | -0.187 |
| O=S(=O)(Cc1ccon1)N1CCN(c2ccncc2Cl)CC1 | -11.7 |
| O=C(c1ccccn1)N1CC[C@@H](N2CCOCC2)[C@@H]1Cc1ccccc1 | -10.4 |
| CNC(=O)NCC1CCC2(CCN(C(=O)c3ccccn3)CC2)CO1 (centres undefined) | 1.5 |
| c1cnnc(N2CCCC(NCc3cn4ccccc4n3)C2)c1 (centres undefined) | 15.8 |
| CCOc1ccccc1C(CC(=O)Nc1ncc(C)s1)NC(C)=O (centres undefined) | 14.6 |
| Cc1ccc(CC(=O)N2CCCCC2c2nc(C)cs2)cn1 (centres undefined) | -14.4 |
| O=c1[nH]nc(CCCN2CCOCC2)n1Cc1cccc(F)c1 | -2.64 |
| CCC(OC)C(=O)NCc1cc2n(n1)CCCN(C1CCCCC1)C2 (centres undefined) | -9.86 |
| O=C(CCNS(=O)(=O)c1cccnc1)N1CCOC(c2ccccc2)C1 (centres undefined) | -13.3 |
